The record followed here is ChEMBL document CHEMBL1129941, “AMPA receptor agonists: synthesis, protolytic properties, and pharmacology of 3-isothiazolol bioisosteres of glutamic acid” (J Med Chem, 1997).

The target of test [1] is Glutamate receptor ionotropic, AMPA (Rattus norvegicus, UniProt P19490+P19491+P19492+P19493).
Description: In vitro binding affinity for Ionotropic glutamate receptor AMPA site was determined using [3H]AMPA as radioligand in rat cortex
For a further test, the species on record is Rattus norvegicus. Description: tissue or blood.
The test system of another test is Mus musculus. Briefly: In vivo convulsant potency after subcutaneous administration in mice. It counts as functional. The conditions noted are these: sc.

Description for Rattus norvegicus: Effective concentration evaluated in electrophysiological rat cortical slice model

On to `CC(C)(C)c1snc(O)c1CC(N)C(=O)O` (configuration not stated), for which the IC50 in test [1] was found to be 0.63 µM. In the test listed under Rattus norvegicus, this molecule came in with an EC50 of 14 µM.

As for `NC(Cc1cc(O)no1)C(=O)O` (configuration not stated), the IC50 in test [1] came out at 1.5 µM. In the test listed under Rattus norvegicus, this molecule had an EC50 of 370 µM.

`Cc1snc(O)c1CC(N)C(=O)O` (configuration not stated): in test [1], the IC50 is 1.8 µM. In the test filed under Rattus norvegicus, this molecule registered an EC50 of 15 µM. In addition, in the test with Mus musculus, the ED50 is 130 µmol/kg.

`NC(Cc1snc(O)c1Br)C(=O)O` (configuration not stated) returned an IC50 in test [1] of 17 µM. Besides, in the test listed under Rattus norvegicus, it took 500 µM to reach a half-maximal effect (EC50).

As for `NC(Cc1cc(O)ns1)C(=O)O` (configuration not stated), in test [1], 5.8 µM corresponded to half-maximal inhibition (IC50). In the test filed under Rattus norvegicus, the EC50 is 370 µM.

Take `CC(C)(C)c1onc(O)c1CC(N)C(=O)O` (configuration not stated): in the test listed under Rattus norvegicus, it took 34 µM to reach a half-maximal effect (EC50). In other words, the double-digit micromolar range.

In general, IC50 refers to the point on the concentration scale where inhibition reaches its midpoint. Broadly, the EC50 is the concentration needed to bring the measured effect to its halfway point. Lower therefore signals higher potency in that assay. As a reminder, the ED50 is the dose that gives a 50% effect, or the effect in half of the subjects. Low readings indicate an effect at a small dose, high ones a need for a large dose.
